Among the data in patent US12667608B2 (priority 2020, dated 2026) are MIC values, retold here.

SMILES strings stand for the structures. Converted amounts (≈) assume the structure as drawn.

Experiment in all cases: microbe, parasite or virus in culture
Holding throughout (assay type): cell-based

The subject of assay [1] is Recombinant drug-resistant BCG Strain. The following applies: Mycobacterium tuberculosis variant bovis BCG, 672 h.
A further assay deals with Mtb H37Rv. Conditions: Mycobacterium tuberculosis, 672 h.
The test system of another assay is M. bovis BCG. Conditions: Mycobacterium tuberculosis variant bovis BCG, 672 h.

`NCC[C@H](O)C(=O)N[C@@H]1C[C@H](N)[C@@H](O[C@H]2O[C@H](CN)[C@@H](O)[C@H](O)[C@H]2O)[C@H](O)[C@H]1O[C@H]1O[C@H](CO)[C@@H](O)[C@H](N)[C@H]1O` [AMK, amikacin]: the results for the MIC (in assay [1]; against Mtb H37Rv; in the assay with M. bovis BCG) were 5 µg/mL (≈ 8.54 µM), 0.5 to 1 µg/mL (≈ 0.854 to 1.71 µM) and 0.5 µg/mL (≈ 0.854 µM), respectively.

Consider `CC(C)/N=c1\cc2n(-c3ccc(Cl)cc3)c3ccccc3nc-2cc1Nc1ccc(Cl)cc1` [CLA, clofazimine], for which the MIC is 0.5 µg/mL (≈ 1.06 µM) in assay [1], 8 µg/mL (≈ 16.9 µM) in the assay with Mtb H37Rv and 0.25 µg/mL (≈ 0.528 µM) against M. bovis BCG.

For the molecule `CC[C@@H](CO)NCCN[C@@H](CC)CO` [EMB, ethambutol], the MIC in assay [1] came to 5 µg/mL (≈ 24.5 µM); against Mtb H37Rv, 0.5 µg/mL (≈ 2.45 µM); against M. bovis BCG, 0.5 µg/mL (≈ 2.45 µM).

For `NNC(=O)c1ccncc1` [INH, isoniazid], the figures for the MIC (in assay [1]; against Mtb H37Rv; in the assay on M. bovis BCG) were 0.06 µg/mL (≈ 0.438 µM), 0.03 to 0.06 µg/mL (≈ 0.219 to 0.438 µM) and 0.1 µg/mL (≈ 0.729 µM), respectively.

For the molecule `C[C@H]1COc2c(N3CCN(C)CC3)c(F)cc3c(=O)c(C(=O)O)cn1c23` [LFX, levofloxacin], the MIC turned out to be 4 µg/mL (≈ 11.1 µM) in assay [1], 0.5 µg/mL (≈ 1.38 µM) in the assay with Mtb H37Rv and 0.5 µg/mL (≈ 1.38 µM) against M. bovis BCG.

As for `CC(=O)NC[C@H]1CN(c2ccc(N3CCOCC3)c(F)c2)C(=O)O1` [LZD, linezolid], the MIC was 0.03 µg/mL (≈ 0.0889 µM) in assay [1], 0.25 µg/mL (≈ 0.741 µM) in the assay on Mtb H37Rv and 0.125 to 0.5 µg/mL (≈ 0.371 to 1.48 µM) against M. bovis BCG.

As for `COc1c(N2C[C@@H]3CCCN[C@@H]3C2)c(F)cc2c(=O)c(C(=O)O)cn(C3CC3)c12` [MFX, moxifloxacin], the MIC is 4 µg/mL (≈ 9.96 µM) in assay [1], 0.25 to 0.5 µg/mL (≈ 0.623 to 1.25 µM) with Mtb H37Rv and 0.5 µg/mL (≈ 1.25 µM) against M. bovis BCG.

As for `O=[N+]([O-])c1cn2c(n1)OC[C@@H](OCc1ccc(OC(F)(F)F)cc1)C2` [PA-824, Pretomanid], the MIC in assay [1] was 0.25 µg/mL (≈ 0.696 µM); in the assay with Mtb H37Rv, 0.06 to 0.125 µg/mL (≈ 0.167 to 0.348 µM); against M. bovis BCG, 0.25 µg/mL (≈ 0.696 µM).

For the molecule `Nc1ccc(C(=O)O)c(O)c1` [PAS, para-aminosalicylic acid], the MIC was 0.25 µg/mL (≈ 1.63 µM) in assay [1], 0.3 to 1 µg/mL (≈ 1.96 to 6.53 µM) in the assay with Mtb H37Rv and 0.25 µg/mL (≈ 1.63 µM) in the assay with M. bovis BCG.

Turning to `CCCc1cc(C(N)=S)ccn1` [PRO, prothionamide], the MIC in assay [1] worked out at 64 µg/mL (≈ 355 µM); against Mtb H37Rv it was 0.5 µg/mL (≈ 2.77 µM); in the assay on M. bovis BCG it was 0.25 µg/mL (≈ 1.39 µM).

As for `CO[C@H]1/C=C/O[C@@]2(C)Oc3c(C)c(O)c4c(O)c(c(/C=N/N5CCN(C)CC5)c(O)c4c3C2=O)NC(=O)/C(C)=C\C=C\[C@H](C)[C@H](O)[C@@H](C)[C@@H](O)[C@@H](C)[C@H](OC(C)=O)[C@@H]1C` [RIF, rifampicin], the figures for the MIC (in assay [1]; against Mtb H37Rv; against M. bovis BCG) were 0.5 µg/mL (≈ 0.608 µM), 0.25 µg/mL (≈ 0.304 µM) and 0.032 µg/mL (≈ 0.0389 µM), respectively.

For `[H]/N=C(/N)N[C@H]1[C@H](O)[C@@H](O)[C@H](O[C@@H]2O[C@@H](C)[C@](O)(C=O)[C@H]2O[C@@H]2O[C@@H](CO)[C@H](O)[C@@H](O)[C@@H]2NC)[C@@H](N/C(N)=N\[H])[C@@H]1O` [STR, streptomycin], the MIC came to 64 µg/mL (≈ 110 µM) in assay [1], 1 µg/mL (≈ 1.72 µM) in the assay on Mtb H37Rv and 0.25 µg/mL (≈ 0.43 µM) in the assay on M. bovis BCG.

Take `COc1nc2ccc(Br)cc2cc1[C@@H](c1ccccc1)[C@@](O)(CCN(C)C)c1cccc2ccccc12` [TMC 207, bedaquiline]: the MIC in assay [1] is 0.03 µg/mL (≈ 0.054 µM); in the assay with Mtb H37Rv it was 0.03 to 0.12 µg/mL (≈ 0.054 to 0.216 µM); against M. bovis BCG it was 0.03 µg/mL (≈ 0.054 µM).
